# Measured values reported in patent US9663478B2, “Benzotriazine oxides as drugs targeting Mycobacterium tuberculosis” (priority 2011, dated 2017).
# Key:
# Mtb H37Rv [1] = experiment: TB MIC - SRI, resazurin-based microplate assay; assay type: cell-based, Mycobacterium tuberculosis; conditions: Mycobacterium tuberculosis, H37RV, read-out: TB MIC - SRI
# Mtb H37Rv [2] = experiment: TB MIC - ITR (UIC), Institute for Tuberculosis Research; assay type: cell-based, Mycobacterium tuberculosis; conditions: for TB MIC - UIC: Tables P1, P2; for MIC: Mycobacterium tuberculosis, H37RV, Tables 1-4, read-out: TB MIC - ITR
# NRP Mtb H37Rv cells = experiment: Low-oxygen recovery assay (LORA) MIC; assay type: cell-based, Mycobacterium tuberculosis; conditions: for LORA MIC: Tables P1, P2, non-replicating M. tuberculosis; for MIC: Mycobacterium tuberculosis, H37RV, NRP Mtb, Tables 1-4 and text, read-out: LORA MIC - ITR
# in vitro = conditions: African green monkey, VERO Tox (CC50)
# [3] = tested on: Salmonella typhimurium tester strain TA98; experiment: Salmonella/microsome plate incorporation assay (Ames screen), TA98; assay type: cell-based; conditions: for Mean revertants per plate: Salmonella typhimurium
# From the text: (§1) A liability in developing any bioreductively-activated antimicrobial drug is the potential for mutagenicity. Because the basis for activity of these compounds is the generation of intermediate radical species, undesirable mutagenicity poses a risk, as has been documented for many classes of bioreductive drugs, including the BTO tirapazamine (TPZ).^19,20 The most convenient methodology for assessing the potential to induce genetic damage is to use the plate incorporation method with Salmonella typhimurium strains TA98 and TA100, commonly known as the Ames assay. The Salmonella tester strains have mutations in the histidine operon, a mutation that leads to defective lipopolysaccharide (rfa), and a deletion that covers genes involved in the synthesis of biotin (bio) and in the repair of ultraviolet-induced DNA damage (uvrB).^21,22 These mutations make the strains more permeable to many molecules and increase their susceptibility to the mutagenic effects of these molecules. Given that the hypothesized mechanism of the BTO compounds is to selectively form cytotoxic radical species in bacteria over mammalian cells, a microbial mutagenicity assay is not ideal, but was used to benchmark their activities in this assay. […] Individual plate counts and their means and standard deviations, along with the condition of the background lawn, are presented in SI Table 2.
# (§2) Experimental compounds were screened for microbial mutagenicity activity using the plate incorporation method with Salmonella typhimurium tester strains TA98 and TA100, in the presence and absence of an Aroclor 1254-induced rat-liver metabolic activation system containing 10% S9 (MA). The presence of the appropriate genetic characteristics was verified for the strains used in this study. Stock solutions were made by dissolving each test sample in dimethyl sulfoxide (DMSO) at 5 mg/ml. These initial stock concentrations were then serially diluted to achieve dose formulations of 100, 50, 10, 5, 1, 0.5, and 0.1 μg/plate (dosing volume 100 μl). Test plates were compared with the control plates for their revertant count and for the condition of the background bacterial lawn. A test article was considered a mutagen when the mean number of revertant colonies on the test plates exceeds the mean solvent control counts by at least a two-fold margin. Dose relatedness was also taken into account when evaluating a mutagenic response. Cytotoxicity was estimated by several parameters: a substantial decrease in the number of revertant colonies on the test plates, clearing or absence of the background bacterial lawn growth, formation of pinpoint nonrevertant colonies, or complete absence of bacterial growth.
# [4] = tested on: Salmonella typhimurium tester strain TA100; experiment: Salmonella/microsome plate incorporation assay (Ames screen), TA100; assay type: cell-based
# From the text: as §1, §2
# [5] = TA100, with metabolic activation (10% S9), 2 μg per plate, positive control
# [6] = TA100, with metabolic activation (10% S9), 0.1 μg per plate
# [7] = TA100, with metabolic activation (10% S9), 0.5 μg per plate
# [8] = TA100, with metabolic activation (10% S9), 1 μg per plate
# [9] = TA100, with metabolic activation (10% S9), 5 μg per plate
# [10] = TA100, with metabolic activation (10% S9), 10 μg per plate
# [11] = TA100, with metabolic activation (10% S9), 50 μg per plate
# [12] = TA100, with metabolic activation (10% S9), 100 μg per plate
# [13] = TA100, without metabolic activation, 0.1 μg per plate
# [14] = TA100, without metabolic activation, 0.5 μg per plate
# [15] = TA100, without metabolic activation, 1 μg per plate
# [16] = TA100, without metabolic activation, 5 μg per plate
# [17] = TA100, without metabolic activation, 10 μg per plate
# [18] = TA100, without metabolic activation, 50 μg per plate
# [19] = TA100, without metabolic activation, 100 μg per plate
compound,measurement,setting,value
C[C@@H](Nc1n[n+]([O-])c2ccccc2[n+]1[O-])C1CCCCC1 (racemic) [SRI-012261],MIC,Mtb H37Rv [1]; Tables P1-P3,1.25 µg/mL
same,TB MIC - UIC,Mtb H37Rv [2],0.92 µg/mL
same,LORA MIC,NRP Mtb H37Rv cells,0.36 µg/mL
same,CC50 at 72 h,in vitro,8.9 µg/mL
[O-][n+]1nc(N[C@@H]2C[C@H]3CC[C@@H]2C3)[n+]([O-])c2ccccc21 (racemic) [SRI-012264],MIC,Mtb H37Rv [1]; Tables P1-P3,0.625 µg/mL
same,TB MIC - UIC,Mtb H37Rv [2],0.6 µg/mL
same,LORA MIC,NRP Mtb H37Rv cells,0.42 µg/mL
same,CC50 at 72 h,in vitro,3.4 µg/mL
C[C@@H]1[C@H]2C[C@@H](C[C@H]1Nc1n[n+]([O-])c3ccccc3[n+]1[O-])C2(C)C (racemic) [SRI-012273],MIC,Mtb H37Rv [1]; Tables P1-P3,1.25 µg/mL
same,TB MIC - UIC,Mtb H37Rv [2],0.48 µg/mL
same,LORA MIC,NRP Mtb H37Rv cells,0.48 µg/mL
same,CC50 at 72 h,in vitro,4.6 µg/mL
CC(=O)Nc1cc(/C=C/c2ccc([N+](=O)[O-])o2)ns1 [Cmpd 2],MIC,Mtb H37Rv [1]; Tables 1-4 and text,0.98 µg/mL
same,MIC,Mtb H37Rv [2],3.8 µg/mL
same,MIC,NRP Mtb H37Rv cells,3.7 µg/mL
same,CC50 at 72 h,in vitro,> 50 µg/mL
Nc1ccc2cc3ccccc3cc2c1 [Compound 2AN],Ratio treated/solvent,"[3]; TA98, with metabolic activation (10% S9), 2 μg per plate, positive control",15.3
same,Mean revertants per plate,[4]; [5],490.0
same,Ratio treated/solvent,[4]; [5],2.9
"CCC(COC)Nc1n[n+]([O-])c2ccccc2[n+]1[O-] (centres unmarked) [Compound 8i, 3-((1-methoxybutan-2-yl)amino)benzo[e][1,2,4]triazine 1,4-dioxide]",MIC,Mtb H37Rv [1]; Tables 1-4 and text,10 µg/mL
same,MIC,Mtb H37Rv [2],6.6 µg/mL
same,MIC,NRP Mtb H37Rv cells,4.9 µg/mL
same,CC50 at 72 h,in vitro,> 50 µg/mL
"CCC(COC)Nc1n[n+]([O-])c2cc(F)ccc2[n+]1[O-] (centres unmarked) [Compound 15ai, 7-fluoro-3-((1-methoxybutan-2-yl)amino)benzo[e][1,2,4]triazine 1,4-dioxide]",MIC,Mtb H37Rv [1]; Tables 1-4 and text,5 µg/mL
same,MIC,Mtb H37Rv [2],2 µg/mL
same,MIC,NRP Mtb H37Rv cells,1.9 µg/mL
same,CC50 at 72 h,in vitro,6.3 µg/mL
"CCNc1n[n+]([O-])c2cc3c(cc2[n+]1[O-])CCC3 [Compound 15fa, 3-(ethylamino)-7,8-dihydro-6H-indeno[5,6-e][1,2,4]triazine 1,4-dioxide]",MIC,Mtb H37Rv [2],0.95 µg/mL
same,MIC,NRP Mtb H37Rv cells,0.83 µg/mL
same,"number of revertant colonies, TA98",[3],dose-related increases in the number of revertant colonies
same,Mean revertants per plate,[3]; 0.1 μg per plate,21.0
same,Mean revertants per plate,[3]; 0.1 μg/plate,35.5
same,Mean revertants per plate,[3]; 0.5 μg per plate,19.0
same,Mean revertants per plate,[3]; 0.5 μg/plate,36.0
same,Mean revertants per plate,[3]; 1 μg per plate,26.0
same,Mean revertants per plate,[3]; 1 μg/plate,30.5
same,Mean revertants per plate,[3]; 5 μg per plate,47.0
same,Mean revertants per plate,[3]; 5 μg/plate,37.0
same,Mean revertants per plate,[3]; 10 μg per plate,52.0
same,Mean revertants per plate,[3]; 10 μg/plate,45.0
same,Mean revertants per plate,[3]; 50 μg per plate,142.5
same,Mean revertants per plate,[3]; 50 μg/plate,141.0
same,Mean revertants per plate,[3]; 100 μg per plate,345.0
same,Mean revertants per plate,[3]; 100 μg/plate,215.5
same,Ratio treated/solvent,"[3]; TA98, with metabolic activation (10% S9), 0.1 μg per plate",1.0
same,Ratio treated/solvent,"[3]; TA98, with metabolic activation (10% S9), 0.5 μg per plate",1.0
same,Ratio treated/solvent,"[3]; TA98, with metabolic activation (10% S9), 1 μg per plate",0.9
same,Ratio treated/solvent,"[3]; TA98, with metabolic activation (10% S9), 5 μg per plate",1.0
same,Ratio treated/solvent,"[3]; TA98, with metabolic activation (10% S9), 10 μg per plate",1.5
same,Ratio treated/solvent,"[3]; TA98, with metabolic activation (10% S9), 50 μg per plate",4.0
same,Ratio treated/solvent,"[3]; TA98, with metabolic activation (10% S9), 100 μg per plate",9.7
same,Ratio treated/solvent,"[3]; TA98, without metabolic activation, 0.1 μg per plate",0.8
same,Ratio treated/solvent,"[3]; TA98, without metabolic activation, 0.5 μg per plate",0.7
same,Ratio treated/solvent,"[3]; TA98, without metabolic activation, 1 μg per plate",1.0
same,Ratio treated/solvent,"[3]; TA98, without metabolic activation, 5 μg per plate",1.8
same,Ratio treated/solvent,"[3]; TA98, without metabolic activation, 10 μg per plate",1.8
same,Ratio treated/solvent,"[3]; TA98, without metabolic activation, 50 μg per plate",5.5
same,Ratio treated/solvent,"[3]; TA98, without metabolic activation, 100 μg per plate",8.5
same,Mean revertants per plate,[4]; [6],145.5
same,Ratio treated/solvent,[4]; [6],0.9
same,Mean revertants per plate,[4]; [7],148.5
same,Ratio treated/solvent,[4]; [7],0.9
same,Mean revertants per plate,[4]; [8],185.0
same,Ratio treated/solvent,[4]; [8],1.1
same,Mean revertants per plate,[4]; [9],207.0
same,Ratio treated/solvent,[4]; [9],1.2
same,Mean revertants per plate,[4]; [10],298.5
same,Ratio treated/solvent,[4]; [10],1.8
same,Mean revertants per plate,[4]; [11],854.5
same,Ratio treated/solvent,[4]; [11],5.1
same,Mean revertants per plate,[4]; [12],1450.0
same,Ratio treated/solvent,[4]; [12],8.6
same,Mean revertants per plate,[4]; [13],127.0
same,Ratio treated/solvent,[4]; [13],0.8
same,Mean revertants per plate,[4]; [14],137.0
same,Ratio treated/solvent,[4]; [14],0.8
same,Mean revertants per plate,[4]; [15],150.5
same,Ratio treated/solvent,[4]; [15],0.9
same,Mean revertants per plate,[4]; [16],259.0
same,Ratio treated/solvent,[4]; [16],1.6
same,Mean revertants per plate,[4]; [17],299.5
same,Ratio treated/solvent,[4]; [17],1.8
same,Mean revertants per plate,[4]; [18],913.5
same,Ratio treated/solvent,[4]; [18],5.6
same,Mean revertants per plate,[4]; [19],1268.0
same,Ratio treated/solvent,[4]; [19],7.8
same,"number of revertant colonies, TA100",[4]; presence and absence of metabolic activation,dose-related increases in the number of revertant colonies
[N-]=[N+]=[N-].[Na+] [SA],Mean revertants per plate,[4]; [16],1620.0
same,Ratio treated/solvent,[4]; [16],10.0
[O-][n+]1nc(NC2CC2)[n+]([O-])c2ccccc21 [SRI-012255],TB MIC - UIC,Mtb H37Rv [2],1.82 µg/mL
same,LORA MIC,NRP Mtb H37Rv cells,1.76 µg/mL
same,CC50 at 72 h,in vitro,20.7 µg/mL
[O-][n+]1nc(NC2CCCCCC2)[n+]([O-])c2ccccc21 [SRI-012256],TB MIC - UIC,Mtb H37Rv [2],1.64 µg/mL
same,LORA MIC,NRP Mtb H37Rv cells,0.5 µg/mL
same,CC50 at 72 h,in vitro,7.9 µg/mL
CCCC(C)Nc1n[n+]([O-])c2ccccc2[n+]1[O-] (centres unmarked) [SRI-012258],TB MIC - UIC,Mtb H37Rv [2],1.95 µg/mL
same,LORA MIC,NRP Mtb H37Rv cells,0.99 µg/mL
same,CC50 at 72 h,in vitro,26.3 µg/mL
[O-][n+]1nc(NC2CCCC2)[n+]([O-])c2ccccc21 [SRI-012265],TB MIC - UIC,Mtb H37Rv [2],3.58 µg/mL
same,LORA MIC,NRP Mtb H37Rv cells,0.68 µg/mL
same,CC50 at 72 h,in vitro,10.4 µg/mL
[O-][n+]1nc(NC2CCCCC2)[n+]([O-])c2ccccc21 [SRI-012266],TB MIC - UIC,Mtb H37Rv [2],3.77 µg/mL
same,LORA MIC,NRP Mtb H37Rv cells,0.75 µg/mL
same,CC50 at 72 h,in vitro,8.9 µg/mL
